# The source made the active and inactive calls.
# Key:
# Cytochrome P450 3A4 = Cytochrome P450 3A4 (Homo sapiens, UniProt P08684);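 note: CYP3A4 tested as one member of a cytochrome P450 panel screen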
# Cytochrome P450 1A2 = target: T1, Cytochrome P450 1A2 (Homo sapiens, UniProt P05177);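 note: PubChem cytochrome P450 panel assay, CYP1A2 panel member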
# T1 sequence (P05177 whole entry): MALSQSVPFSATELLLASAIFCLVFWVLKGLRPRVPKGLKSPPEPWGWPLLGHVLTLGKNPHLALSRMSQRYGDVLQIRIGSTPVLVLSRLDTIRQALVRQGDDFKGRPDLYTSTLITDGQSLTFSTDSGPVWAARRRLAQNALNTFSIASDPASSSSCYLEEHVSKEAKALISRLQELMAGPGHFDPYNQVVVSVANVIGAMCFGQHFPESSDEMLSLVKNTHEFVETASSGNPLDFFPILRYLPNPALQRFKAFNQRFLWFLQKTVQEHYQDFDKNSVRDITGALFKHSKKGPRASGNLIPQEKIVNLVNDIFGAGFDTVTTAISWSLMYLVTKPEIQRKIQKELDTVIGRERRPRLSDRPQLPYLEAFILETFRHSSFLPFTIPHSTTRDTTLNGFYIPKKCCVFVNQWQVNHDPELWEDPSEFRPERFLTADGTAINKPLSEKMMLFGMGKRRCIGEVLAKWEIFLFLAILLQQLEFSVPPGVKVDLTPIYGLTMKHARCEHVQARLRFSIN
# [1] = target: T2, Heat shock factor protein 1 (Mus musculus, UniProt P38532); experiment: decrease of HSF1-responsive luciferase luminescence – cell-based, NIH3T3, dose retest, confirmation (AID 2382); format: functional;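 note: NIH3T3 fibroblasts with HSF1-driven luciferase reporter stressed by proteasome inhibitor MG132; luminescence from HSF1-driven luciferase expression after 8 hours of MG132 stress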
# T2 sequence (P38532 whole entry): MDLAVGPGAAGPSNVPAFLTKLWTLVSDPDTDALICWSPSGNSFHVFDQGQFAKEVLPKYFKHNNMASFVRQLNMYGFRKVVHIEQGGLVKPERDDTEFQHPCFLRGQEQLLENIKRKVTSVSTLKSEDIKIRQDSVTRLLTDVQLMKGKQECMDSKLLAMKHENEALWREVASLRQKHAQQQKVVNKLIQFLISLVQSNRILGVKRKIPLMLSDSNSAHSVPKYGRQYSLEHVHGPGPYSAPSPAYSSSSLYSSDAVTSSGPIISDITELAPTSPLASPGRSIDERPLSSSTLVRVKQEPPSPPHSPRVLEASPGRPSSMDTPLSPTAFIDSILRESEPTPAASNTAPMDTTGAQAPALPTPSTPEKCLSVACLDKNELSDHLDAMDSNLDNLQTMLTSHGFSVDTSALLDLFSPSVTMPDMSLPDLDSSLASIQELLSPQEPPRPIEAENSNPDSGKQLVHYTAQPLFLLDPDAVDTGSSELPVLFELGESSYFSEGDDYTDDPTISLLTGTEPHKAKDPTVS
# Protein Rev [2] = target: Protein Rev (Human immunodeficiency virus type 1 group M subtype B (isolate WMJ22)(HIV-1), UniProt P05866); experiment: inhibitors of Rev protein–RRE RNA complex – biochemical, protein-RNA interaction, dose response (AID 842); design: species or system Human immunodeficiency virus 1
# [3] = target: Nucleotide-binding oligomerization domain-containing protein 2 (Homo sapiens, UniProt Q9HC29); experiment: PubChem AID 2334; format: functional
# Tumor necrosis factor = Tumor necrosis factor (Homo sapiens, UniProt P01375); experiment: analog potency on TNFa NF-kB signaling – cell-based, revised, SAR follow-up (AID 2337); format: functional
# [4] = HepG2 cell cytotoxicity, dose response, cytotoxicity control for non-replicating M. tuberculosis project (AID 489018); format: functional; details: Mycobacterium tuberculosis
# [5] = THP-1 cell cytotoxicity, dose response, cytotoxicity control for non-replicating M. tuberculosis project (AID 489025); format: functional
# cells = format: functional
# HEK293 = experiment: cells; details: Homo sapiens;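 note: cells exposed to compound for 14 hours overnight before viability readout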
# [6] = target: T3, Nucleotide-binding oligomerization domain-containing protein 1 (Homo sapiens, UniProt Q9Y239); experiment: blockers of NOD1 pathway activity – revised, SAR follow-up (AID 2333); format: functional
# T3 sequence (Q9Y239 whole entry): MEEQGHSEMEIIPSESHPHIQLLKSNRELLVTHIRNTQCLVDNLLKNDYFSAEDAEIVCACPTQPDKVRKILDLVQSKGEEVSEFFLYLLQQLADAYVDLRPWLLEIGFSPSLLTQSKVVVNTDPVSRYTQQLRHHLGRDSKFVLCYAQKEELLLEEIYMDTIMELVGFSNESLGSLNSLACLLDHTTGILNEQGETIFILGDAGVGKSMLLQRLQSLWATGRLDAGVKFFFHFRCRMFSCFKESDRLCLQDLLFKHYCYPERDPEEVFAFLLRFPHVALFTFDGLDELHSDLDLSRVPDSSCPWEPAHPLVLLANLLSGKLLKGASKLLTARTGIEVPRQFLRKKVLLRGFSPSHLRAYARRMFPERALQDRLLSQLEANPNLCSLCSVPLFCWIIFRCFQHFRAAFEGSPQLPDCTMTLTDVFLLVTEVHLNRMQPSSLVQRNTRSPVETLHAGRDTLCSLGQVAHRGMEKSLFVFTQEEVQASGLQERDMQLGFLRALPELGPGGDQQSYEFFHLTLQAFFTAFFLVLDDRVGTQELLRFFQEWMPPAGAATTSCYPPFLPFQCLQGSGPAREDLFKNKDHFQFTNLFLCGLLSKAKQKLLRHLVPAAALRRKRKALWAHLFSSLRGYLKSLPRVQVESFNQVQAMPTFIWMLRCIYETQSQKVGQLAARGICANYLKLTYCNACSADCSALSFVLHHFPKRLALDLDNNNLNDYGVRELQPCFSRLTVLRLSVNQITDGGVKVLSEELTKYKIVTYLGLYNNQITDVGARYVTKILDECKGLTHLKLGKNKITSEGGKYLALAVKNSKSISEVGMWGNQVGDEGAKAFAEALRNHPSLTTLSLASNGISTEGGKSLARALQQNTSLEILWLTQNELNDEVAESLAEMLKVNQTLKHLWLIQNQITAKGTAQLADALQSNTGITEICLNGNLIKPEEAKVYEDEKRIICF
# [7] = Vero E6 cell cytotoxicity, dose response, cytotoxicity control for non-replicating M. tuberculosis project, secondary assay (AID 492998); format: functional, VeroE6; details: Vero C1008
# [8] = target: NACHT, LRR and PYD domains-containing protein 3 (Homo sapiens, UniProt Q96P20); experiment: NALP3 inhibitors in yeast, dose response, luminescent (AID 488799); format: functional
# [9] = target: T4, Delta-type opioid receptor (Homo sapiens, UniProt P41143); experiment: delta opioid receptor blockers – image-based, SAR follow-up (AID 2357); format: functional
# [10] = target: T5, Kappa-type opioid receptor (Homo sapiens, UniProt P41145); experiment: kappa opioid receptor blockers, image-based, SAR follow-up (AID 2348); format: functional
# Mu-type opioid receptor [11] = target: T6, Mu-type opioid receptor (Homo sapiens, UniProt P35372); experiment: mu opioid receptor activators, image-based, SAR follow-up (AID 2352); format: functional
# [12] = target: T4, Delta-type opioid receptor; experiment: DOR agonists, SAR follow-up, image-based (AID 2370); format: functional
# [13] = target: T5, Kappa-type opioid receptor; experiment: kappa opioid receptor activation potency – imaging, image-based, SAR follow-up (AID 2359); format: functional
# Mu-type opioid receptor [14] = target: T6, Mu-type opioid receptor; experiment: mu opioid receptor blockers – image-based, SAR follow-up (AID 2420); format: functional;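 note: compounds added before stimulation of receptor with agonist DAMGO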
# [15] = target: T5, Kappa-type opioid receptor; experiment: kappa opioid receptor blockers, cell-based, luminescence, beta-arrestin, SAR follow-up (AID 2285); format: functional
# [16] = target: T7, Melanin-concentrating hormone receptor 1 (Homo sapiens, UniProt Q99705); experiment: Fluorescence-based counterscreen for antagonists of the G-protein coupled receptor 7 (GPR7): cell-based high throughput dose response assay to identify antagonists of the melanin-concentrating hormone receptor 1 (MCHR1).; format: functional
# [17] = target: T8, RNA-binding protein pos-1 (Caenorhabditis elegans, UniProt G5EF15); experiment: disruptors of C. elegans POS-1 RNA interaction – biochemical, fluorescence polarization, dose response (AID 1964);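 note: purified POS-1 fused to maltose binding protein made in E. coli; potency of compounds blocking POS-1 binding to fluorescent RNA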
# T8 sequence (G5EF15 whole entry): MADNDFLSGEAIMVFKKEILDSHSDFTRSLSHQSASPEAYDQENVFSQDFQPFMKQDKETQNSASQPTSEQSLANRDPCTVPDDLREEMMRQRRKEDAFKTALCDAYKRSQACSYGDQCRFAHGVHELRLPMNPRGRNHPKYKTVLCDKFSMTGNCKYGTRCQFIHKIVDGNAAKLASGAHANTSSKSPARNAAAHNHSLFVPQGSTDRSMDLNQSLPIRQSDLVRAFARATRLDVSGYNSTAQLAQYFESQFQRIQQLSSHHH
# Protein Rev [18] = target: Protein Rev (Human immunodeficiency virus type 1 group M subtype B (isolate HXB2)(HIV-1), UniProt P04618); experiment: blockers of HIV Rev/RRE RNA complex – biochemical, fluorescence polarization, HIV-1, dose response (AID 434976); design: species or system Human immunodeficiency virus 1
# [19] = target: T9, Zinc finger protein mex-5 (Caenorhabditis elegans, UniProt Q9XUB2); experiment: potency of MEX-5 RNA-binding blockers – biochemical, C. elegans, fluorescence polarization, dose response (AID 1960)
# T9 sequence (Q9XUB2 whole entry): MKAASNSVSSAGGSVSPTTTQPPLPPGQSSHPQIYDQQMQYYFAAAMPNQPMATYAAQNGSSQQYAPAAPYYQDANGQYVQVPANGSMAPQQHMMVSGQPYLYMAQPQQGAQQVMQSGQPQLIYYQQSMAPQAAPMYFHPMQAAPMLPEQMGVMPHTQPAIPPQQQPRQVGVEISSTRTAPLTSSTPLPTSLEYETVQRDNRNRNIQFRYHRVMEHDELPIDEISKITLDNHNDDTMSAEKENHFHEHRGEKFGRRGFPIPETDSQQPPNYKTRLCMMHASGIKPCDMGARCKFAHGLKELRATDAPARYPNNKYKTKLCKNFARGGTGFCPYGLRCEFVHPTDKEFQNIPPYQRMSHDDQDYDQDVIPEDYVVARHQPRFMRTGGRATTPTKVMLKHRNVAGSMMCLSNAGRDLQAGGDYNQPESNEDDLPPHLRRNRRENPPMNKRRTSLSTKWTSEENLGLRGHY
# [20] = target: Female germline-specific tumor suppressor gld-1 (Caenorhabditis elegans, UniProt Q17339); experiment: blockers of GLD-1/TGE RNA complex formation – biochemical, fluorescence polarization, C. elegans, dose response (AID 2802);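 note: fluorescence polarization of labeled TGE RNA bound by purified gld-1 protein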
# [21] = target: Neurotensin receptor type 1 (Homo sapiens, UniProt P30989); format: functional;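 note: Image-based confirmatory dose-response assay measuring agonist activity at NTR1; NTR1-expressing U2OS osteosarcoma cells imaged for beta-arrestin GFP spot formation; agonist potency where compounds increase beta-arrestin recruitment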
# [22] = reduction of Shn3 3'UTR-driven luciferase in osteoblasts – cell-based, Clone20 osteoblasts, firefly luciferase, cherry-picked, dose response (AID 624132); format: functional;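 note: firefly luciferase luminescence from reporter carrying the Shn3 3'UTR in osteoblasts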
# [23] = target: Dual specificity protein phosphatase 3 (Homo sapiens, UniProt P51452); experiment: inhibition constants for human DUSP3 – biochemical, colorimetric, SAR follow-up (AID 2004)
# X-box-binding protein 1 = X-box-binding protein 1 (Homo sapiens, UniProt P17861); format: functional, Cricetulus griseus;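 note: confirmatory dose-response counter-screen serving a CHOP assay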
# [24] = target: T5, Kappa-type opioid receptor; experiment: SAR analysis of small molecule agonists of the kappa opioid receptor via a luminescent beta-arrestin assay. [Related pubchem assays (depositor defined):AID1777, AID1786, AID1966, AID2133, AID2136, AID2348, AID2352, AID2357, AID2359, AID2370, AID2420, AID2478, AID2491, AID2492, AID2493, AID2497, AID2498, AID2500, AID449737, AID488822, AID488842]; format: functional
# [25] = target: T7, Melanin-concentrating hormone receptor 1; experiment: Late-stage fluorescence-based counterscreen for antagonists of the G-protein coupled receptor 7 (GPR7): cell-based dose response assay to identify antagonists of the melanin-concentrating hormone receptor 1 (MCHR1). [Related pubchem assays (depositor defined):AID1861, AID1880, AID1952, AID2148, AID2251, AID2257, AID485339]; format: functional
# [26] = target: Neuropeptides B/W receptor type 1 (Homo sapiens, UniProt P48145); experiment: human NPBW1 receptor blockade, IC50 – cell-based, fluorescence, dose response, late-stage follow-up (AID 463251); format: functional
# Neuropeptides B/W receptor type 1, sequence (P48145 whole entry): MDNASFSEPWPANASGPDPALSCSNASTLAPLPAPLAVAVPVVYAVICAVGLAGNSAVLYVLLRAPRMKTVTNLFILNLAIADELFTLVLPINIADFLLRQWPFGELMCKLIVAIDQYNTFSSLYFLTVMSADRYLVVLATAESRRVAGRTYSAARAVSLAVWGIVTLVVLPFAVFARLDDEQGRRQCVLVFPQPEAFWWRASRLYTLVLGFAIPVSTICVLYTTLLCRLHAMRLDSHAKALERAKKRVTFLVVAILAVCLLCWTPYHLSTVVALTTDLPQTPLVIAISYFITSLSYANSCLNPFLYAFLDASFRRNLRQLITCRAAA
# T5 sequence (P41145 whole entry): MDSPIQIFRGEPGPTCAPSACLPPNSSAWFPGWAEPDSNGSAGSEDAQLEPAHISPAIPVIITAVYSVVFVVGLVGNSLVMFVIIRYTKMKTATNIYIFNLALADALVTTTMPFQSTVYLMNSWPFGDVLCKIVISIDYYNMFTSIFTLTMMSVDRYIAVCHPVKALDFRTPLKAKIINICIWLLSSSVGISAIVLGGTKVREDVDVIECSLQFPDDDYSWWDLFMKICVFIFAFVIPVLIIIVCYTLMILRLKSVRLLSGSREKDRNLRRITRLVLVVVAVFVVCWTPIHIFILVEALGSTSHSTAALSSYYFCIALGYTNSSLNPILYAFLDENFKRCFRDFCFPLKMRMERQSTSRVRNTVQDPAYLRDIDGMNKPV
# T4 sequence (P41143 whole entry): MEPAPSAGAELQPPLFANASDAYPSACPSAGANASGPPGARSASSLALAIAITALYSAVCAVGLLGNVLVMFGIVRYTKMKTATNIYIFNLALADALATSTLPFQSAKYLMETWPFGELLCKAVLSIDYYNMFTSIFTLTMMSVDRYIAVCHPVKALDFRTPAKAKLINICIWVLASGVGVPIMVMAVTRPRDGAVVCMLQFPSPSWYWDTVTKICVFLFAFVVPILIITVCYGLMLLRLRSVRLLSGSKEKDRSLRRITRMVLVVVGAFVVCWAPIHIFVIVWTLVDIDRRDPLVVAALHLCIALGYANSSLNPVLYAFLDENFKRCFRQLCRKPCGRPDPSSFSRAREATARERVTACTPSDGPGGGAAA
# T6 sequence (P35372 whole entry): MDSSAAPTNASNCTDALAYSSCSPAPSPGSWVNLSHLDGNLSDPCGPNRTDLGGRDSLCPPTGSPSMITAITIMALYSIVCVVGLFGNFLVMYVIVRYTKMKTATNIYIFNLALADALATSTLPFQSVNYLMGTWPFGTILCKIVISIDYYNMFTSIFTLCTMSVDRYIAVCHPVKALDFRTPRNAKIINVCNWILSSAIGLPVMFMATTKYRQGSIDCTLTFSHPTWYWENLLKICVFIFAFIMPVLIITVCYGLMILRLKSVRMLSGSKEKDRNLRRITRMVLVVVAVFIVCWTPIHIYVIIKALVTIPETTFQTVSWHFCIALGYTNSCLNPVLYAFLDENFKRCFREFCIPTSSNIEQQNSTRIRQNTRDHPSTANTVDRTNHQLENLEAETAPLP
# T7 sequence (Q99705 whole entry, the tested form may be a part): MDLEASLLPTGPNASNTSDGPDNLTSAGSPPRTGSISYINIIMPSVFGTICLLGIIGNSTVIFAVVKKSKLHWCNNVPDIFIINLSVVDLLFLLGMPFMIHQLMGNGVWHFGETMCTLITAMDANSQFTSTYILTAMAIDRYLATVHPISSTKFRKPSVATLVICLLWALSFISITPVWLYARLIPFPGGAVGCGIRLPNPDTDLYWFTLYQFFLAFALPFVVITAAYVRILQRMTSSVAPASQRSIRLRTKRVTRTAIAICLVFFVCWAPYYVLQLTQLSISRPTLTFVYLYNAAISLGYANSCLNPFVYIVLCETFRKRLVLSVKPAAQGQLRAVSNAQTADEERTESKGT
# Tumor necrosis factor, sequence (P01375 whole entry): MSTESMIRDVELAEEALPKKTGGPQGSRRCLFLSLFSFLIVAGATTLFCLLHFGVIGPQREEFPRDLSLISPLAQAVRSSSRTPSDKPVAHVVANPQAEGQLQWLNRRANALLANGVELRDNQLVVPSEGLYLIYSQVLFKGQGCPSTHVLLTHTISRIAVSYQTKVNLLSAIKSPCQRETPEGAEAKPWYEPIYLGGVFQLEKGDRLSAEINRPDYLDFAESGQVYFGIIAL
# X-box-binding protein 1, sequence (P17861 whole entry): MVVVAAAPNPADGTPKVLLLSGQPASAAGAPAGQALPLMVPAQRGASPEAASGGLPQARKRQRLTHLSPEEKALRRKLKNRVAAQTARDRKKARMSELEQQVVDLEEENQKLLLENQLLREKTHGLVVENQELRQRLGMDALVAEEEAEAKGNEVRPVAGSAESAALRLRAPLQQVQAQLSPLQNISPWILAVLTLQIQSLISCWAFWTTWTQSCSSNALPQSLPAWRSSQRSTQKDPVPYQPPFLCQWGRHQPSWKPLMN
# Female germline-specific tumor suppressor gld-1, sequence (Q17339 whole entry): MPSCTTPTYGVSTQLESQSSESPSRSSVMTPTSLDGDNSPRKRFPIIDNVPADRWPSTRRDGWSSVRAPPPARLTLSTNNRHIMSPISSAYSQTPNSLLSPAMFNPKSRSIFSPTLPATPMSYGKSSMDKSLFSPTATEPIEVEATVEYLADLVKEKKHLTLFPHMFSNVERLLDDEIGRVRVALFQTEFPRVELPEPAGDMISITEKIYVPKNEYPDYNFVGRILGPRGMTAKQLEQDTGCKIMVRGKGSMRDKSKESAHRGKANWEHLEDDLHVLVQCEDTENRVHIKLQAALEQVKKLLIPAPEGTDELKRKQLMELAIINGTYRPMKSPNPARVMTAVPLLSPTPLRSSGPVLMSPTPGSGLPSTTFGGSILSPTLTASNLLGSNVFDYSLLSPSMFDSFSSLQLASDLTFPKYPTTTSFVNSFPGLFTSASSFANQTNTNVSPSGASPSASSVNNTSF
# Nucleotide-binding oligomerization domain-containing protein 2, sequence (Q9HC29 whole entry, the tested form may be a part): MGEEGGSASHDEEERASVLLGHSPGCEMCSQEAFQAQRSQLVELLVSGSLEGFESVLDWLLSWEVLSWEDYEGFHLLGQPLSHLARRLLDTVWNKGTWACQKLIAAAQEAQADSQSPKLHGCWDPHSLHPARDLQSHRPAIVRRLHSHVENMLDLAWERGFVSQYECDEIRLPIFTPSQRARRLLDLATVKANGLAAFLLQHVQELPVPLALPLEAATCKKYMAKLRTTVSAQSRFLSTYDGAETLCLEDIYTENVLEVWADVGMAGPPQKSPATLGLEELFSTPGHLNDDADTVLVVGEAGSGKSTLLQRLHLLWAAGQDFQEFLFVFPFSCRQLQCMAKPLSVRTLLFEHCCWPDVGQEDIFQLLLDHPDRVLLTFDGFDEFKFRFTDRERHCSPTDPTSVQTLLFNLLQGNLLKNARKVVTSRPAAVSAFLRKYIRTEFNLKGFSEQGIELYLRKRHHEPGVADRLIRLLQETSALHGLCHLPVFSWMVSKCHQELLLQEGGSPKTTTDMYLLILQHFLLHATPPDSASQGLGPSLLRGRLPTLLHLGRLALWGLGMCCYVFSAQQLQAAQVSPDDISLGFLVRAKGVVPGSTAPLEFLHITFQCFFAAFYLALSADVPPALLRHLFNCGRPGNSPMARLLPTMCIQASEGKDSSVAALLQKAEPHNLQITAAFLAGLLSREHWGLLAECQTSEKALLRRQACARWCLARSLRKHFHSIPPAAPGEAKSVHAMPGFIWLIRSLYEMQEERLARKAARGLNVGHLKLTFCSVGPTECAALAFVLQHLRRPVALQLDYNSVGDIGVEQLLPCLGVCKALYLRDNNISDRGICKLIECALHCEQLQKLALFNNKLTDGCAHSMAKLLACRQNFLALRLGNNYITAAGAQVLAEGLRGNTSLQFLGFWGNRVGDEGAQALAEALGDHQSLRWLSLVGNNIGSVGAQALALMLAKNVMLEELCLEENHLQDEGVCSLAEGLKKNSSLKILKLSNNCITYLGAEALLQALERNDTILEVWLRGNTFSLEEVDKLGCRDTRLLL
# Protein Rev (Human immunodeficiency virus type 1 group M subtype B (isolate WMJ22)(HIV-1), UniProt P05866), sequence (P05866 whole entry, the tested form may be a part): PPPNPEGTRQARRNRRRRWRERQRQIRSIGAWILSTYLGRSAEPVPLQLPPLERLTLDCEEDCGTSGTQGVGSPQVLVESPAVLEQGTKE
# NACHT, LRR and PYD domains-containing protein 3, sequence (Q96P20 whole entry, the tested form may be a part): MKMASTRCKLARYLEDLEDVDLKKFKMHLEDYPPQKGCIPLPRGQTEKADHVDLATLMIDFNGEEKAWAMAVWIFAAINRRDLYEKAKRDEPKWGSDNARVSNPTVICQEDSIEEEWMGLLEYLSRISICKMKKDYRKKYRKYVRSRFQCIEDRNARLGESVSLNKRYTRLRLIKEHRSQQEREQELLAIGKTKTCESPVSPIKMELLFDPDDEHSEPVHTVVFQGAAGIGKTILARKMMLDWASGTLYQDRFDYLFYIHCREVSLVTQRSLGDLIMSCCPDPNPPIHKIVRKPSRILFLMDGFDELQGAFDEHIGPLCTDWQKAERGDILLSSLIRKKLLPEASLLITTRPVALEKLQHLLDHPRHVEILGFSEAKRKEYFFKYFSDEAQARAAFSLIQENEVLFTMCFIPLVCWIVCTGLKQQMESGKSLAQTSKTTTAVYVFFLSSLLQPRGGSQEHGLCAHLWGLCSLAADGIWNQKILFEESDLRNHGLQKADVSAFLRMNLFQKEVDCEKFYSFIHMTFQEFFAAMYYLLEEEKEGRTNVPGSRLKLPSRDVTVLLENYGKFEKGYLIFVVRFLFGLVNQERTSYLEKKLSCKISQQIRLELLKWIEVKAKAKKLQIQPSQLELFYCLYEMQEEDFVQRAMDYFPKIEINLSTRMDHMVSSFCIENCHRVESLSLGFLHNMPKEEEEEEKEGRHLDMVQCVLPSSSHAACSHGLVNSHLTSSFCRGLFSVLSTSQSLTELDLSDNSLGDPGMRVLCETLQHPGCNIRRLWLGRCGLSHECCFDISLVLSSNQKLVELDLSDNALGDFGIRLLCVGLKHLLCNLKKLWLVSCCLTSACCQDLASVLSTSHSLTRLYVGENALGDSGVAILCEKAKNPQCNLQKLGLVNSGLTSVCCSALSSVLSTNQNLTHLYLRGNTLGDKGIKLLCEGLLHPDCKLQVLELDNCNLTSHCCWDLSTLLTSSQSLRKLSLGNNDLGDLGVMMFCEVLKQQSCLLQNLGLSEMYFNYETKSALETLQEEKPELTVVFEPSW
smiles,measurement,setting,value
CC[n+]1c(/C=C/Nc2ccccc2)oc2ccccc21,AC50,Cytochrome P450 3A4,25.1 µM (inconclusive)
same,AC50,Cytochrome P450 1A2,15.8 µM (inconclusive)
same,EC50,[1],> 195 µM (not active)
same,IC50,Protein Rev [2],5.66 µM (active)
CC(=O)Nc1nc2ccccc2n1Cc1ccc(Cl)cc1,IC50,[3],> 20 µM (inactive)
same,IC50,Tumor necrosis factor,> 20 µM (inactive)
same,CC50,[4],> 20 µM (active)
same,CC50,[5],30.9 µM (active)
same,IC50,cells,1.02 µM (active)
same,IC50,HEK293,> 20 µM (inactive)
same,IC50,[6],18.8 µM (active)
same,CC50,[7],12.9 µM (active)
O=c1c2cc(Cl)ccc2nc(-c2ccc([N+](=O)[O-])cc2)n1O,CC50,[5],22.6 µM (active)
same,IC50,cells,17.8 µM (active)
same,IC50,[8],6.6 µM (active)
same,CC50,[7],17.3 µM (active)
O=C(c1ccc(CNS(=O)(=O)c2ccccc2)cc1)N1CCN(Cc2ccccc2)CC1,IC50,[9],> 32 µM (inactive)
same,IC50,[10],> 32 µM (inactive)
same,EC50,Mu-type opioid receptor [11],> 32 µM (inactive)
same,EC50,[12],> 32 µM (inactive)
same,EC50,[13],> 32 µM (inactive)
same,IC50,Mu-type opioid receptor [14],> 32 µM (inactive)
same,IC50,[15],> 10 µM (inactive)
COC(=O)[C@@H](Cc1c[nH]c2ccccc12)NC(=O)CCC(=O)c1ccc(Br)cc1,IC50,[16],24.5 µM (not active)
O=C(CN1C(=O)C2CC=C(Cl)CC2C1=O)NCc1ccccc1 (stereo unspecified),EC50,[17],34.1 µM (active)
same,IC50,Protein Rev [18],25.8 µM (not active)
same,EC50,[19],24.7 µM (active)
same,IC50,[20],7.72 µM (active)
CCOc1cc(/C=C2\C(=O)ON=C2C)ccc1OCc1ccccc1,EC50,[21],13.9 µM (active)
same,AC50,[22],10.4 µM (active)
COc1cccc(/C=C2/C(=O)NC(=O)N(c3cccc(C)c3)C2=O)c1O,Ki,[23],33.1 µM (inactive)
Cc1sc2ncnc(N3CCCCC3C)c2c1C (stereo unspecified),Absolute IC50 (XBP1),X-box-binding protein 1,10 µM
CCCN(Cc1cc2ccc(C)cc2[nH]c1=O)C(=O)c1ccccn1,EC50,[24],> 10 µM (inactive)
same,IC50,[9],> 32 µM (inactive)
same,IC50,[10],> 32 µM (inactive)
same,EC50,Mu-type opioid receptor [11],> 32 µM (inactive)
same,EC50,[12],> 32 µM (inactive)
same,EC50,[13],> 32 µM (inactive)
same,IC50,Mu-type opioid receptor [14],> 32 µM (inactive)
COc1cc(OC)cc(Oc2c(Cl)cnn(-c3ccc(C(C)C)cc3)c2=O)c1,IC50,[25],10.5 µM (inactive)
same,IC50,[26],8.2 µM (active)
